Test system: T1, TpdE
T1 construct: C-terminal His6 tag, pET-tpdE in E. coli BL21 (DE3), Ni-chelating column, ~30 kDa on SDS-PAGE; residues T15, G16, G20, G22, N119, S148, Y161, K165
Assay: NADPH oxidation at […] nm, Michaelis-Menten fit
Type: biochemical, Rhodococcus jostii
Conditions: 0.2 mM NADPH, 50 mM phosphate pH 7.2, 30 °C; apparent

SMILES	Km [mM]
CCCCC(=O)C(C)=O [2,3-Heptanedione]	6.9 ± 0.9
CCCC(=O)C(C)=O [2,3-Hexanedione]	2.2 ± 0.4
CC(=O)C(C)S (stereo not drawn) [3-Mercapto-2-butanone]	14.4 ± 4.8
CC(=O)C(C)O (stereo not drawn) [Acetoin]	5 ± 0.3
CCC(=O)C(=O)CC [3,4-Hexanedione]	3.3 ± 0.6
CCC(=O)C(C)=O [2,3-Pentanedione]	0.98 ± 0.2
CC(=O)C(C)(C)O [3-Hydroxy-3-methyl-2-butanone]	14.6 ± 4
CCCC(=O)OC(C)C(C)=O (stereo not drawn) [Butan-3-one-2-yl-butanoate]	0.76 ± 0.1
CC(=O)C(C)=O [Diacetyl]	1.9 ± 0.3
